Here are results for 19 compounds from US20230066011A1, “PYRROLOPYRIMIDINE DERIVATIVE, AND PHARMACEUTICAL COMPOSITION FOR PREVENTING OR TREATING PROTEIN KINASE-RELATED DISEASE COMPRISING SAME AS ACTIVE INGREDIENT” (VORONOI CO., LTD., priority 2019, published 2023).

For one test, the target named is T1, human GST-DYRK1A (Homo sapiens, UniProt Q13627).
T1 construct: purified human GST-DYRK1A (full length, Thermo Scientifics) enzyme; purchased Thermo Scientifics
In words: GST-DYRK1A enzyme inhibition, ADP-Glo kinase assay. The format is biochemical. Conditions: ATP 10 μM, GST-DYRK1A full length, read-out: DYRK1 IC50. The procedure: (§1) To evaluate an inhibitory activity of the compound according to the present invention against LRRK2, LRRK2 (G2019S), DYRK1, CLK1, and TTK kinases, experiments were performed as follows.
(§2) Each of the Example compounds was reacted with a purified human GST-DYRK1A (full length, Thermo Scientifics) enzyme to evaluate an ability to inhibit an enzyme using a method as described below. A composition of 40 mM Tris-HCl (pH 7.4), 20 mM MgCl2, 0.5 mg/mL BSA, and 50 μM DTT was used as a reaction buffer, and all reactions of test substances were performed in the reaction buffer. In the test, purified ATP (10 μM) and a specific substrate solution were reacted with a human GST-DYRK1A (full length, 10 ng) enzyme at 25° C. for an hour, and the enzyme activities were then determined using an in vitro ADP-Glo™ kinase assay (Promega). An enzyme-activity reaction solution, an ADP-Glo reaction solution, and an enzyme-ability detection solution were reacted at a ratio of 2:2:1 to measure a degree of inhibition of the enzyme activity with luminescence. The degree of inhibition of the enzyme activity according to the treatment concentration of each of the compounds was calculated based on the fluorescence of the enzyme activity of the solvent control which was not treated with the compound. In this case, the concentration of each of the compounds inhibiting 50% of the enzyme activity was determined to be an IC50 (nM) value, and the IC50 (nM) value of each of the compounds was determined from 3 sets of data, and calculated using Prism (Version 5.01; GraphPad) software.
For orientation: ADP-Glo turns the ADP formed in a reaction into a luminescent signal.

Another test has as its target T2, human GST-CLK1 (Homo sapiens, UniProt P49759).
T2 construct: purified human GST-CLK1 (129-end, SignalChem) enzyme; purchased SignalChem
In words: GST-CLK1 enzyme inhibition, ADP-Glo kinase assay. It counts as biochemical. Conditions: ATP 10 μM, GST-CLK1 129-end. The procedure: as §1
as §2, with “GST-CLK1 (129-end, SignalChem)” for “GST-DYRK1A (full length, Thermo Scientifics)”, “GST-CLK1 (129-end, 3” for “GST-DYRK1A (full length, 10”, “value. The” for “value, and the”

Usually IC50 stands for the concentration that gives 50% inhibition.

T2 sequence (P49759 129-484 limits assumed): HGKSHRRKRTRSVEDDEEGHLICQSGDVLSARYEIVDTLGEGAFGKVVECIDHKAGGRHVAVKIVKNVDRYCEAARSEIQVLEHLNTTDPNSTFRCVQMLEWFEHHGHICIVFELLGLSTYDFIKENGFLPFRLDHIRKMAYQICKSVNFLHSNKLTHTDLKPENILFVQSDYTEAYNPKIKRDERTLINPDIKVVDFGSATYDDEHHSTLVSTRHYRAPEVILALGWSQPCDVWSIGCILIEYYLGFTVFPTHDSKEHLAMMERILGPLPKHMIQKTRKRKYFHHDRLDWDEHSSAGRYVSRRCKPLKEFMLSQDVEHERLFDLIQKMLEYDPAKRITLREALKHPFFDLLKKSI

On to `CC[C@@H](C)Nc1nc(Nc2ccc(S(=O)(=O)N3CCC(N4CCOCC4)CC3)cc2OC)nc2[nH]ccc12` [Example 15, (R)-N^4-(sec-butyl)-N^2-(2-methoxy-4-((4-morpholinopiperidin-1-yl)sulfonyl)phenyl)-7H-pyrrolo[2,3-d]pyrimidine-2,4-diamine], for which the IC50 on human GST-DYRK1A and against human GST-CLK1 was 301 to 1000 nM throughout.

As to `CC[C@@H](C)Nc1nc(Nc2ccc(S(C)(=O)=O)cc2OC)nc2[nH]ccc12` [Example 16, (R)-N^4-(sec-butyl)-N^2-(2-methoxy-4-(4-methylsulfonyl)phenyl)-7H-pyrrolo[2,3-d]pyrimidine-2,4-diamine], the IC50 on human GST-DYRK1A and on human GST-CLK1 was 301 to 1000 nM throughout.

As for `CC[C@H](C)Nc1nc(Nc2ccc(S(=O)(=O)N3CCC(N4CCOCC4)CC3)cc2OC)nc2[nH]ccc12` [Example 17, (S)-N^4-(sec-butyl)-N^2-(2-methoxy-4-((4-morpholinopiperidin-1-yl)sulfonyl)phenyl)-7H-pyrrolo[2,3-d]pyrimidine-2,4-diamine], the IC50 at human GST-DYRK1A and against human GST-CLK1 was 301 to 1000 nM in each case.

Consider `CC[C@H](C)Nc1nc(Nc2ccc(S(C)(=O)=O)cc2OC)nc2[nH]ccc12` [Example 18, (S)-N^4-(sec-butyl)-N^2-(2-methoxy-4-(4-methylsulfonyl)phenyl)-7H-pyrrolo[2,3-d]pyrimidine-2,4-diamine], for which the 50% inhibitory concentration (IC50) on human GST-DYRK1A and at human GST-CLK1 was 301 to 1000 nM each time.

For the compound `COc1cc(S(C)(=O)=O)ccc1Nc1nc(N[C@@H]2CCOC2)c2cc[nH]c2n1` [Example 28, (R)-N^2-(2-methoxy-4-(methylsulfonyl)phenyl)-N^4-(tetrahydrofuran-3-yl)-7H-pyrrolo[2,3-d]pyrimidine-2,4-diamine], the 50% inhibitory concentration (IC50) on human GST-DYRK1A and against human GST-CLK1 was 301 to 1000 nM each time.

Turning to `COc1cc(S(=O)(=O)N2CCC(N3CCOCC3)CC2)ccc1Nc1nc(N[C@H]2CCOC2)c2cc[nH]c2n1` [Example 29, (S)-N^2-(2-methoxy-4-((4-morpholinopiperidin-1-yl)sulfonyl)phenyl)-N^4-(tetrahydrofuran-3-yl)-7H-pyrrolo[2,3-d]pyrimidine-2,4-diamine], the IC50 at human GST-DYRK1A and against human GST-CLK1 was 301 to 1000 nM in each case.

As to `O=C(c1ccc(Nc2nc(N[C@@H]3CCOC3)c3cc[nH]c3n2)c2c1OCCO2)N1CCOCC1` [Example 50, (R)-morpholino(8-((4-((tetrahydrofuran-3-yl)amino)-7H-pyrrolo[2,3-d]pyrimidin-2-yl)amino)-2,3-dihydrobenzo[b][1,4]dioxin-5-yl)methanone], the half-inhibitory concentration (IC50) at human GST-DYRK1A and at human GST-CLK1 was 301 to 1000 nM in each case.

`O=C(c1ccc(Nc2nc(N[C@H]3CCOC3)c3cc[nH]c3n2)c2c1OCCO2)N1CCOCC1` [Example 51, (S)-morpholino(8-((4-((tetrahydrofuran-3-yl)amino)-7H-pyrrolo[2,3-d]pyrimidin-2-yl)amino)-2,3-dihydrobenzo[b][1,4]dioxin-5-yl)methanone]: the half-inhibitory concentration (IC50) at human GST-DYRK1A and against human GST-CLK1 was 301 to 1000 nM each time.

With `CC[C@H](C)Nc1nc(Nc2ccc(S(C)(=O)=O)cc2OC)nc2[nH]cc(C#N)c12` [Example 102, (S)-4-(sec-butylamino)-2-((2-methoxy-4-(methylsulfonyl)phenyl)amino)-7H-pyrrolo[2,3-d]pyrimidine-5-carbonitrile], the IC50 on human GST-DYRK1A and against human GST-CLK1 was 301 to 1000 nM each time.

In the case of `COc1cc(S(C)(=O)=O)ccc1Nc1nc(N[C@H]2CCOC2)c2c(C#N)c[nH]c2n1` [Example 108, (S)-2-((2-methoxy-4-(methylsulfonyl)phenyl)amino)-4-((tetrahydrofuran-3-yl)amino)-7H-pyrrolo[2,3-d]pyrimidine-5-carbonitrile], the half-inhibitory concentration (IC50) was 301 to 1000 nM on human GST-DYRK1A and less than 100 nM against human GST-CLK1.

Take `COc1cc(P(C)(C)=O)ccc1Nc1nc(NC(C)C)c2c(C#N)c[nH]c2n1` [Example 114, 2-((4-(dimethylphosphoryl)-2-methoxyphenyl)amino)-4-(isopropylamino)-7H-pyrrolo[2,3-d]pyrimidine-5-carbonitrile]: the IC50 on human GST-DYRK1A and at human GST-CLK1 was 301 to 1000 nM each time.

For the compound `COCCNc1nc(Nc2ccc(P(C)(C)=O)cc2OC)nc2[nH]cc(C#N)c12` [Example 115, 2-((4-(dimethylphosphoryl)-2-methoxyphenyl)amino)-4-((2-methoxyethyl)amino)-7H-pyrrolo[2,3-d]pyrimidine-5-carbonitrile], the values for the IC50 on human GST-DYRK1A and on human GST-CLK1 were 301 to 1000 nM and less than 100 nM, respectively.

`COc1cc(P(C)(C)=O)ccc1Nc1nc(NC2CC2)c2c(C#N)c[nH]c2n1` [Example 116, 4-(cyclopropylamino)-2-((4-(dimethylphosphoryl)-2-methoxyphenyl)amino)-7H-pyrrolo[2,3-d]pyrimidine-5-carbonitrile]: the IC50 on human GST-DYRK1A is 301 to 1000 nM; against human GST-CLK1, less than 100 nM.

For `N#Cc1c[nH]c2nc(Nc3ccc(C(=O)N4CCOCC4)c4c3OCCO4)nc(N[C@@H]3CCOC3)c12` [Example 127, (R)-2-((8-(morpholine-4-carbonyl)-2,3-dihydrobenzo[b][1,4]dioxin-5-yl)amino)-4-((tetrahydrofuran-3-yl)amino)-7H-pyrrolo[2,3-d]pyrimidine-5-carbonitrile], the results for the IC50 at human GST-DYRK1A and against human GST-CLK1 were 301 to 1000 nM and less than 100 nM, respectively.

With `N#Cc1c[nH]c2nc(Nc3ccc(C(=O)N4CCOCC4)c4c3OCCO4)nc(N[C@H]3CCOC3)c12` [Example 128, (S)-2-((8-(morpholine-4-carbonyl)-2,3-dihydrobenzo[b][1,4]dioxin-5-yl)amino)-4-((tetrahydrofuran-3-yl)amino)-7H-pyrrolo[2,3-d]pyrimidine-5-carbonitrile], the IC50 fell in the range of 301 to 1000 nM at human GST-DYRK1A and 101 to 300 nM against human GST-CLK1.

Regarding `N#Cc1c[nH]c2nc(Nc3ccc(C(=O)N4CCOCC4)c4c3OCCO4)nc(NC3CCOCC3)c12` [Example 129, 2-((8-(morpholine-4-carbonyl)-2,3-dihydrobenzo[b][1,4]dioxin-5-yl)amino)-4-((tetrahydro-2H-pyran-4-yl)amino)-7H-pyrrolo[2,3-d]pyrimidine-5-carbonitrile], the IC50 on human GST-DYRK1A and against human GST-CLK1 was 301 to 1000 nM in each case.

On to `CC(C)CNc1nc(Nc2ccc(C(=O)N3CCC(N4CCOCC4)CC3)c3c2OCCO3)nc2[nH]cc(C#N)c12` [Example 139, 4-(isobutylamino)-2-((8-(4-morpholinopiperidine-1-carbonyl)-2,3-dihydrobenzo[b][1,4]dioxin-5-yl)amino)-7H-pyrrolo[2,3-d]pyrimidine-5-carbonitrile], for which the IC50 at human GST-DYRK1A was 301 to 1000 nM; against human GST-CLK1 it was less than 100 nM.

Take `N#Cc1c[nH]c2nc(Nc3ccc(C(=O)N4CCC(N5CCOCC5)CC4)c4c3OCCO4)nc(NC3CCCCC3)c12` [Example 142, 4-(cyclohexylamino)-2-((8-(4-morpholinopiperidine-1-carbonyl)-2,3-dihydrobenzo[b][1,4]dioxin-5-yl)amino)-7H-pyrrolo[2,3-d]pyrimidine-5-carbonitrile]: the results for the IC50 at human GST-DYRK1A and at human GST-CLK1 were 301 to 1000 nM and less than 100 nM, respectively.

Take `CNc1nc(Nc2ccc(P3(=O)CCN(C4COC4)CC3)cc2OC)nc2[nH]cc(C#N)c12` [Example 154, 2-((2-methoxy-4-(1-(oxetan-3-yl)-4-oxido-1,4-azaphosphinan-4-yl)phenyl)amino)-4-(methylamino)-7H-pyrrolo[2,3-d]pyrimidine-5-carbonitrile]: the IC50 on human GST-DYRK1A and against human GST-CLK1 was 301 to 1000 nM each time.
